This note sets out measurements from article PMC6938330, “Crystal structures of p120RasGAP N-terminal SH2 domain in its apo form and in complex with a p190RhoGAP phosphotyrosine peptide” (PLoS ONE, 2019).

The test system of test [1] is R207A mutated N-SH2 (p120RasGAP). Briefly: Isothermal titration calorimetry (ITC), R207A mutant N-SH2. In kind it is binding, human. The protocol: (§1) A mutant form, with R207A mutation, was introduced by QuikChange mutagenesis (Agilent) using forward and reverse primers (5'-[…]-3', 5'- […]-3’). Expression and purification were by identical methods as wild type protein. Yield for the mutant was 4 mg/L culture. Both wild type and mutant constructs elute from size exclusion chromatography as monodisperse peaks.
(§2) A synthetic 13 amino acid peptide of sequence EEENI(p-Tyr)SVPHDST native to p190RhoGAP residues 1100 to 1112 phosphorylated at Tyr-1105, with N-terminal acetylation and C-terminal amidation, was commercially synthesized (GenScript) and re-suspended in sterile-filtered water.
The N-SH2 protein and pTyr1105 peptide were prepared for ITC by overnight dialysis in a common buffer with a 20mM Tris 7.4, 150mM NaCl composition. Slide-A-Lyzer Dialysis Cassettes with a molecular weight cut-off of 3,500 Da were used for protein dialysis and Micro Float-A-Lyzer Dialysis devices with a 100–500 Da cut-off for peptide dialysis. Samples were retrieved from their cartridges, spun down for 10 minutes at 4°C. Concentrations were measured using a Nanodrop spectrophotometer at 280 nm. To determine peptide concentration, a phosphotyrosine extinction coefficient of 458.6 M^-1cm^-1 at pH 7.4 was used. […] Results were analyzed using the nano-ITC software, through fitting to an independent binding model. […]

The subject of test [2] is R207A mutant p120RasGAP N-SH2. Briefly: Native PAGE gel shift, R207A mutant N-SH2. In kind it is binding, human. Conditions: protein 0.08 mM, peptide 0.02 to 0.15 mM (peptide:protein 0.25 to 1.9); on ice 10 min; 50 mM Tris pH 7.4; 4–20% gel, pH 8.3, 200 V 1 h; Coomassie. The protocol: as §1, §2
A serial dilution series of pTyr-1105 phosphopeptide was performed in dilution buffer (50 mM Tris pH 7.4), and mixed with wild-type or R207A mutant N-terminal SH2 domain protein for a final protein concentration of 0.08 mM and a phosphopeptide concentration ranging from 0.02 mM to 0.15 mM (peptide:protein ratio ranging from 0.25 to 1.9). The protein-peptide mixtures, or protein alone as negative control, were incubated on ice for 10 minutes and then centrifuged for 1 minute at 4 °C. 10 μL of 2X native protein sample buffer (62.5 mM Tris HCL pH 6.8, 40% glycerol, 0.01% bromophenol blue) was then added to all samples. […]
For orientation: Mobility shift assays separate free from complexed probe on a gel.

For test [3], the target named is T1, N-terminal SH2 domain of p120RasGAP (Homo sapiens, UniProt P20936, C236S/C261S).
T1 construct: cDNA of residues 174 through 280 of human p120RasGAP (UniProt ID: P20936); made in house; host or cells: E. coli Rosetta(DE3)
T1 sequence (P20936 174-280 C236S/C261S): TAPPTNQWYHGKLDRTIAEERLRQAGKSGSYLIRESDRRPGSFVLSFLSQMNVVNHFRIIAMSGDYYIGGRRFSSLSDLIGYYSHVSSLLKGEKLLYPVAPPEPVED
Description: Isothermal titration calorimetry (ITC), wild-type N-SH2. Conditions: 20mM Tris 7.4, 150mM NaCl, independent binding model. The protocol: (§3) cDNA of residues 174 through 280 of human p120RasGAP (UniProt ID: P20936) encoding the N-terminal SH2 domain tagged was subcloned into a modified pET28a vector with an N-terminal hexahistidine tag and TEV protease recognition sequence. Two native cysteines, C236 and C261, were mutated to serine to prevent disulfide bridge formation. Following transformation into Rosetta(DE3) cells, a 1L culture was induced overnight at OD600 of 0.6–0.8 and 18°C using 0.2 mM IPTG. Cells were harvested by centrifugation and resuspended in lysis buffer (50 mM HEPES pH 7.3, 500 mM NaCl). Lysis was facilitated by lysozyme addition and three freeze/thaw cycles, prior to sonication and DNAse I addition. Clarified lysate was prepared by centrifugation at 5000 x g at 4°C and incubated with nickel beads (Ni-NTA Agarose, Qiagen) for 1 hr at 4°C to capture hexahistidine-tagged protein. Following washing with 3 column volumes of wash buffer (50 mM HEPES pH 7.3, 500 mM NaCl, 20mM imidazole), TEV protease was added overnight at 4 °C to cleave the SH2 domain protein from the hexahistidine-tag. The next day, flow through containing tag-free SH2 domain protein was collected and the beads were washed with several column volumes of wash buffer to fully remove the cleaved protein from the beads. Size exclusion chromatography (Superdex 75, GE Healthcare) was performed on p120RasGAP N-SH2 in 20 mM Tris pH 7.4 and 150 mM NaCl. Yield was 20 mg/L culture. Protein was concentrated by centrifugal filter (Amicon Ultra, Millipore Sigma).
as §2
The N-SH2 protein and pTyr1105 peptide were prepared for ITC by overnight dialysis in a common buffer with a 20mM Tris 7.4, 150mM NaCl composition. Slide-A-Lyzer Dialysis Cassettes with a molecular weight cut-off of 3,500 Da were used for protein dialysis and Micro Float-A-Lyzer Dialysis devices with a 100–500 Da cut-off for peptide dialysis. Samples were retrieved from their cartridges, spun down for 10 minutes at 4°C. Concentrations were measured using a Nanodrop spectrophotometer at 280 nm. To determine peptide concentration, a phosphotyrosine extinction coefficient of 458.6 M^-1cm^-1 at pH 7.4 was used. Two ITC experiments were performed using a Nano-ITC (TA Instruments). Both protein and peptide were degassed for 3 minutes prior to loading. 350 μL of protein were injected into the sample cell. The injection burette was loaded with 52 μL of peptide. 20 injections of 2.5 μL of peptide, each spanning 300 seconds, were performed per ITC run. Results were analyzed using the nano-ITC software, through fitting to an independent binding model.
We conducted isothermal titration calorimetry to assess the interaction between the N-terminal SH2 domain of p120RasGAP and the p190RhoGAP pTyr-1105 peptide. We injected the p190RhoGAP pTyr-1105 peptide at a concentration of 78.5 μM into N-SH2 at a concentration of 15 μM. Averaged over two independent experiments we observe a Kd of 0.3 ± 0.1 μM (Fig 5A).
A general note: Isothermal titration calorimetry measures the heat released or taken up as one component is titrated into another.

In test [4] the test system is wild-type p120RasGAP N-SH2. Description: Native PAGE gel shift, wild-type N-SH2. In kind it is binding, human. Conditions: saturating peptide concentrations; protein 0.08 mM, peptide 0.02 to 0.15 mM (peptide:protein 0.25 to 1.9); on ice 10 min; 50 mM Tris pH 7.4; 4–20% gel, pH 8.3, 200 V 1 h; Coomassie. On the procedure: as §3, with “Size exclusion chromatography (Superdex 75, GE Healthcare) was performed on p120RasGAP N-SH2 in 20 mM Tris pH 7.4 and 150 mM NaCl. Yield was 20 mg/L culture. Protein was concentrated by centrifugal filter (Amicon Ultra, Millipore Sigma).” left out

Test [5] addresses p190RhoGAP pTyr-1105 peptide pTyr-1105 peptide (Homo sapiens, UniProt Q9NRY4, pTyr1105). Description: ITC.
Test [6] addresses T2, p120RasGAP N-terminal SH2 domain (residues 174-280, C236S, C261S) (human, UniProt P20936 174-280, C236S | C261S).
T2 construct: human p120RasGAP (RASA1), residues 174 through 280, the N-terminal SH2 domain; two native cysteines mutated to serine; The His6 tag was removed with TEV protease; also called p120RasGAP N-SH2; N-SH2; source: E. coli Rosetta(DE3), purified (Ni-NTA, TEV cleavage, Superdex 75 SEC); not shown: His6, N-terminal, cleaved
T2 sequence (looked up): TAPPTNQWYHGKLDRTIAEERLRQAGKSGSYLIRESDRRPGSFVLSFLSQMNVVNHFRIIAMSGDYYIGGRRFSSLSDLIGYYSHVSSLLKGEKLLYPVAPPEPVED
Briefly: ITC; peptide in the burette injected into N-SH2 in the cell (78.5 μM into 15 μM wild type; 120 μM into 15 μM R207A); 20 mM Tris 7.4, 150 mM NaCl; Nano-ITC, 20 injections of 2.5 μL; independent binding model; two runs. Conditions: both partners purified.

“And” between values parts separate entries of the source, which are not always exact repeats. Equal entries are not always repeated. Where a SMILES comes first, the peptide text is derived from it. [ ]: non-standard residue; d: D form. pY = N[C@@H](Cc1ccc(OP(=O)(O)O)cc1)C(=O)O

As a reminder, the Kd is a measure of binding affinity in units of concentration. As to `CC[C@H](C)[C@H](NC(=O)[C@H](CC(N)=O)NC(=O)[C@H](CCC(=O)O)NC(=O)[C@H](CCC(=O)O)NC(=O)[C@H](CCC(=O)O)NC(C)=O)C(=O)N[C@@H](Cc1ccc(OP(=O)(O)O)cc1)C(=O)N[C@@H](CO)C(=O)N[C@H](C(=O)N1CCC[C@H]1C(=O)N[C@@H](Cc1c[nH]cn1)C(=O)N[C@@H](CC(=O)O)C(=O)N[C@@H](CO)C(=O)N[C@H](C(N)=O)[C@@H](C)O)C(C)C` [p190RhoGAP pTyr-1105 peptide] (Ac-EEENI[pY]SVPHDST-NH2), in test [1] (R207A mutant, summarising statement of the Conclusions (ITC and native PAGE)), the “interaction upon mutation of the FLVR motif arginine residue” value is “abolishes interaction”. The heat of binding entry in test [1] (peptide at 120 μM injected into R207A mutated N-SH2 at 15 μM, 20mM Tris 7.4, 150mM NaCl) was “do not observe measurable heat”. Also, the “mobility shift in native gel” value in test [2] is on record as “fails to shift”. The Kd in test [3] (averaged over two independent ITC experiments, peptide at 78.5 μM injected into N-SH2 (residues 174-280, C236S/C261S) at 15 μM, 20 injections of 2.5 μL, 300 s each, read-out: Kd (dissociation constant)) was determined as 300 ± 100 nM. In test [3] (run 1 of two), the TΔS was -8.9 kcal/mol, the ΔG is -8.7 kcal/mol and the ΔH is reported as -17.6 kcal/mol. In test [3] (run 2 of two), this molecule yielded a TΔS of -4.9 kcal/mol, a ΔG of -9.0 kcal/mol and a ΔH of -13.9 kcal/mol. In addition, in test [4], the “mobility shift in native gel” value is “significant increase in its mobility in the gel”.

B1: p120RasGAP N-terminal SH2 (protein)
chain: WYHGKLDRTIAEERLRQAGKSGSYLIRESDRRPGSFVLSFLSQMNVVNHFRIIAMCGDYYIGGRRFSSLSDLIGYYSHVSCLLKGEKLLYPV
On to B1, for which the Kd in test [5] amounted to 300 nM.

B2: p190RhoGAP pTyr-1105 phosphopeptide EEENI(p-Tyr)SVPHDST (residues 1100-1112) (peptide)
peptide: Ac-EEENI[pY]SVPHDST-NH2
SMILES: CC[C@H](C)[C@H](NC(=O)[C@H](CC(N)=O)NC(=O)[C@H](CCC(=O)O)NC(=O)[C@H](CCC(=O)O)NC(=O)[C@H](CCC(=O)O)NC(C)=O)C(=O)N[C@@H](Cc1ccc(OP(=O)(O)O)cc1)C(=O)N[C@@H](CO)C(=O)N[C@H](C(=O)N1CCC[C@H]1C(=O)N[C@@H](Cc1c[nH]cn1)C(=O)N[C@@H](CC(=O)O)C(=O)N[C@@H](CO)C(=O)N[C@H](C(N)=O)[C@@H](C)O)C(C)C
notes: The sixth residue (Y) is phosphotyrosine; also called pTyr1105 peptide; source: synthetic peptide (GenScript)
As usually defined, the stoichiometry N is a count of units in the complex or per binding partner. In the case of B2, in test [6], the Kd was 240 nM and 430 nM; the dH is -17.6 kcal/mol and -13.9 kcal/mol; the “stoichiometry N” value was 0.724 and 0.63.
